Measurements from US20250177341A1, “DIETARY TRIPROPIONIN SUPPLEMENTATION TO REDUCE ADIPOSITY AND IMPROVE GLUCOSE HOMEOSTASIS” (Wisconsin Alumni Research Foundation, priority 2023, published 2025).

Experiments:
[1] = Experiment 3: gnotobiotic mice colonized with human fecal microbiota, body weight; details: mouse, in vivo
From the text: To check whether the effects of tripropionin supplementation are consistent in the context of a human microbiome, we used a gnotobiotic mouse model colonized with human fecal microbiota. We colonized germ-free mice with a complex community of human fecal microbiota, induced metabolic dysregulation though feeding a high-fat diet for 8 weeks, and subjected the mice to a tripropionin- or glycerol-supplemented diet (FIG. 3A).
At 5 and 6 weeks of age mice were placed in Allentown Sentry SPP IVC rack system (Allentown Inc., Allentown, NJ) and fed a HFD (TD08811, Envigo). Mice were then colonized with fecal microbiota from a human donor fecal specimen via gavage with a fecal slurry. The fecal slurry was prepared by collecting 200-500 mg of frozen feces and adding it to anaerobic CMM broth in an anaerobic chamber. The mixture was vortexed for 1 minute and then placed on ice until gavaging (less than 1 hour after preparation). Mice were maintained on the HFD for an additional 6 weeks before being switched to either the glycerol or tripropionin diets (n=4-5 per group). Four weeks after diet change mice were subjected to an OGTT followed by an ITT a week later. Mice were euthanized one week after ITT.

[2] = Experiment 2: obese HFD-fed mice switched to tripropionin diet, body weight and body composition; details: mouse, in vivo
Method: (§1) We next tested the anti-adipogenic effects of tripropionin in metabolically challenged mice. To do this, we fed a HFD for 10 weeks to induce insulin resistance and obesity and then switched mice to either the tripropionin or glycerol diet for 5 weeks (FIG. 2A). […] Mice were monitored in metabolic cages to measure respiratory quotient (RQ) for the initial 48 hours after diet change.
(§2) Experiment 2: Male C57BL/6J mice were ordered from Jackson Laboratories (Bar Harbor, ME) maintained on a chow diet and housed in a chlorinated water rack system. Mice were switched to the HFD and maintained on this diet for 10 weeks at which point mice were fed either the glycerol or the tripropionin diets (n=6 mice per group). Mice were transferred to singly housed metabolic cages, as described above, to measure respiratory quotient, body weight, food intake, and energy expenditure. Five weeks after diet change mice underwent an OGTT and then an ITT one week later.

[3] = Experiment 1: oral glucose tolerance test; assay type: in vivo; details: four weeks after diet change, vs glycerol-fed mice
Method: To assess the effect of tripropionin on adiposity and glucose homeostasis, we fed 11-week-old male C57BL/6J mice a high-fat diet (45% kcal from fat) (HFD) supplemented with either 5.3% tripropionin (w/w) or 5.3% glycerol as a control. Mice were maintained on these diets for 13 weeks, during which food consumption and body weight were measured and an oral glucose tolerance test (OGTT) and insulin tolerance test (ITT) were performed (FIG. 1A). Additionally, body composition was monitored via NMR during the last 2 weeks before sacrifice.
Experiment 1: Male C57BL/6J mice were ordered from Jackson Laboratories (Bar Harbor, ME) maintained on chow (Teklad 8604, Inotiv, Madison, WI) and housed in a chlorinated water rack system in cages with cornhusk bedding and ALPHA-twist™. […] Mice were maintained on their respective diets for an additional 8 weeks and then transferred to single-housed metabolic cages (Promethion Core system, Sable Systems International, North Las Vegas, NV) where body weight food intake and activity level was monitored. During this period, fat and lean mass were monitored using nuclear magnetic resonance (NMR) machine fitted for mice (LF90 Body Composition Analyzer, Bruker Corporation, Billerica, MA). […]
Prior to OGTT, mice were placed in fresh cages fasted for 4 hours. […] Blood glucose levels were measured at regular intervals between 15 and 120 minutes.

[4] = Experiment 3: insulin tolerance test in humanized gnotobiotic mice; details: mouse, in vivo
From the text: We colonized germ-free mice with a complex community of human fecal microbiota, induced metabolic dysregulation though feeding a high-fat diet for 8 weeks, and subjected the mice to a tripropionin- or glycerol-supplemented diet (FIG. 3A).
Experiment 3: Germ-free (GF) male mice (C57BL/6J) were housed in sterile isolators and maintained on autoclaved chow (LabDiet 5021; LabDiet, St. Louis, MO) and sterile water ad libitum. GF cages contained Alpha-dri® (Shepherd Specialty Papers, Kalamazoo, MI) bedding along with paper huts (Bio-Huts, Bio-Serv, Flemington, NJ) and ALPHA-twist™ (Shepherd Specialty Papers) for enrichment. Monthly tests were conducted in each isolator to confirm GF status of the mice. These included a growth test of feces in rich media for 7 days at 37° C. and checking for amplification of the 16S rRNA gene using universal primers. At 5 and 6 weeks of age mice were placed in Allentown Sentry SPP IVC rack system (Allentown Inc., Allentown, NJ) and fed a HFD (TD08811, Envigo). Mice were then colonized with fecal microbiota from a human donor fecal specimen via gavage with a fecal slurry. […]
The ITT was performed one week after the OGTT. […] Blood glucose levels were monitored as described for OGTT. Insulin tolerance curves are expressed as the relative ratio of blood glucose from the baseline.

[5] = Experiment 1: insulin tolerance test; parameters: species or system mice; details: mouse, in vivo
From the text: Experiment 1: Male C57BL/6J mice were ordered from Jackson Laboratories (Bar Harbor, ME) maintained on chow (Teklad 8604, Inotiv, Madison, WI) and housed in a chlorinated water rack system in cages with cornhusk bedding and ALPHA-twist™. At 11 weeks of age, the mice were switched to either a glycerol (TD220541) or tripropionin diet (TD220540) from Envigo (Madison, WI) with a sample size of 6 mice per treatment. […] One week later, mice were subjected to an ITT. […] Mice were sacrificed at 24 weeks of age.
The ITT was performed one week after the OGTT. Mice were fasted for 4 hours in fresh cages and baseline blood glucose levels were taken from tail blood. Insulin was administered at a rate of 0.75 IU per Kg body weight via IP injection. Blood glucose levels were monitored as described for OGTT. Insulin tolerance curves are expressed as the relative ratio of blood glucose from the baseline.

[6] = Experiment 2: respiratory quotient in metabolic cages; parameters: species or system mice; details: mouse, in vivo
Method: as §1, §2

[7] = Experiment 1: high-fat diet supplemented with tripropionin, body weight, food consumption, body composition by NMR; parameters: species or system mice; details: mouse, in vivo
From the text: Experiment 1: Male C57BL/6J mice were ordered from Jackson Laboratories (Bar Harbor, ME) maintained on chow (Teklad 8604, Inotiv, Madison, WI) and housed in a chlorinated water rack system in cages with cornhusk bedding and ALPHA-twist™. At 11 weeks of age, the mice were switched to either a glycerol (TD220541) or tripropionin diet (TD220540) from Envigo (Madison, WI) with a sample size of 6 mice per treatment. […] Mice were maintained on their respective diets for an additional 8 weeks and then transferred to single-housed metabolic cages (Promethion Core system, Sable Systems International, North Las Vegas, NV) where body weight food intake and activity level was monitored. During this period, fat and lean mass were monitored using nuclear magnetic resonance (NMR) machine fitted for mice (LF90 Body Composition Analyzer, Bruker Corporation, Billerica, MA). […]

SMILES: CCC(=O)OCC(COC(=O)CC)OC(=O)CC [tripropionin, 2,3-di(propanoyloxy) propyl propanoate]
- body weight [1]: reduced body weight
- body weight [2]: reduced body weight
- fat mass (NMR) [2]: reduction in fat mass
- onset of body weight reduction [2]: significant differences observed just three days after the diet change
- glucose tolerance (OGTT) [3]: improved glucose tolerance
- insulin sensitivity (ITT) [4]: improved insulin sensitivity
- insulin sensitivity (ITT) [5]: improved insulin sensitivity
- respiratory quotient (RQ) [6]: reduced
- body weight [7]: significantly reduced body weight
- fat mass (NMR) [7]: primarily due to differences in fat mass
